# Source: patent US10124004B2, “Pyrido[3,4-d]pyrimidine derivative and pharmaceutically acceptable salt thereof” (Teijin Pharma Limited, priority 2015, dated 2018)
# Read-outs that look alike come from different tables or passages of the source.
# Assays:
# [1] = target: T1, CDK2/cyclin A2 (Homo sapiens, UniProt P24941); test: Human CDK2/cyclin A2 inhibitory activity (QS S Assist CDK2/Cyclin A2_FP Kit, IMAP fluorescence polarization); format: biochemical
# T1 construct: purchased Carna Biosciences, Inc. QS S Assist CDK2/Cyclin A2_FP Kit
# Protocol: Human CDK2/Cyclin A^2 Inhibitory Activity
# Each compound was analyzed for CDK2/cyclin A2 inhibitory activity with an assay kit (QS S Assist CDK2/Cyclin A2_FP Kit, available from Carna Biosciences, Inc.). This assay kit determines kinase activity on the basis of the IMAP technology by Molecular Devices. Specifically, the kinase activity is determined through quantification of a variation in fluorescent polarization caused by binding of a kinase-phosphorylated fluorescent substance to an IMAP-binding reagent.
# An assay buffer was prepared by 10-fold dilution of the 10× assay buffer attached to the kit with distilled water, and each solution was prepared with the assay buffer. The assay buffer contained 20 mM HEPES (pH 7.4), 0.01% Tween 20, and 2 mM dithiothreitol. A test compound solution was prepared by dilution of the test compound with dimethyl sulfoxide (DMSO) to a concentration 100 times higher than the final concentration and then 25-fold dilution with the assay buffer to a concentration four times higher than the final concentration. An ATP/substrate/Metal solution was prepared by five-fold dilution of the 5×ATP/substrate/Metal solution attached to the kit with the assay buffer. An enzyme solution was prepared by dilution of the CDK2/cyclin A2 attached to the kit with the assay buffer to a concentration twice higher than the final concentration (final concentration of CDK2/cyclin A2: 2.5 ng/well). A detection reagent was prepared by five-fold dilution of 5×IMAP-binding buffer A with distilled water and 400-fold dilution of the IMAP-binding reagent with the diluted buffer.
# The test compound solution (5 μL/well) and the ATP/substrate/Metal solution (5 μL/well) were added to a 384-well plate, and the enzyme solution or the assay buffer (10 μL/well) was added to the plate (total amount of the reaction mixture: 20 μL/well) for initiation of enzymatic reaction. […] The reaction was performed at room temperature for 60 minutes, and the detection reagent (60 μL/well) was then added to the plate, followed by further reaction for 30 minutes at room temperature under light shielding conditions. Subsequently, fluorescent polarization was determined with a microplate reader at an excitation wavelength of 485 nm and an emission wavelength of 535 nm.
# The percent inhibition of enzyme activity was calculated for each test compound (note: enzyme activity=100% in the case of addition of the enzyme solution and addition of DMSO instead of the test compound solution, whereas enzyme activity=0% in the case of addition of the assay buffer instead of the enzyme solution and addition of DMSO instead of the test compound solution). The percent inhibition of enzyme activity was fitted to a dose-response curve, to determine a 50% inhibitory concentration against CDK2/cyclin A2.
# In each table, “+++” corresponds to IC50<10 nM, “++” 10 nM≤IC50<100 nM, and “+” 100 nM≤IC50.
# [2] = target: T2, CDK4/cyclin D3 (Homo sapiens, UniProt P11802); test: Human CDK4/cyclin D3 inhibitory activity (QS S Assist CDK4/Cyclin D3_FP Kit, IMAP fluorescence polarization); format: biochemical
# T2 construct: purchased Carna Biosciences, Inc. QS S Assist CDK4/Cyclin D3_FP Kit
# T2 sequence (P11802 whole entry): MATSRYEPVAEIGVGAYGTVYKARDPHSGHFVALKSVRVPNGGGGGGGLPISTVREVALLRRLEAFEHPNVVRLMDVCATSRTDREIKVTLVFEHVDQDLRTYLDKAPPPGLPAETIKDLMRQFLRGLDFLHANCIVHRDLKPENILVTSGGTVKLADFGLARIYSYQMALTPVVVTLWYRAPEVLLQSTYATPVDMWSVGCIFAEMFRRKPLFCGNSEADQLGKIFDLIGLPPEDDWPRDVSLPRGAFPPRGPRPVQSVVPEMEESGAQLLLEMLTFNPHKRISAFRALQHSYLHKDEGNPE
# T2 sequence (P30281 whole entry partner): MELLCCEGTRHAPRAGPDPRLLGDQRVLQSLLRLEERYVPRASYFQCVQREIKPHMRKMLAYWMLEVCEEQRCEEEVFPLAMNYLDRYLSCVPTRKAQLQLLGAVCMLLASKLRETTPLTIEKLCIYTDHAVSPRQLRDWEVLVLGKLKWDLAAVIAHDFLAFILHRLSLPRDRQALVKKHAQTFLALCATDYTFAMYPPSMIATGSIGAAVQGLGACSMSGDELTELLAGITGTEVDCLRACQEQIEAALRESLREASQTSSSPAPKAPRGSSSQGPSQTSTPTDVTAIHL
# Procedure, shortened: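 IMAP fluorescence-polarization kinase assay with kit ATP/substrate/metal mix and 12.5 to 25 ng/well enzyme in 20 mM HEPES pH 7.4, 0.01% Tween20, 2 mM DTT. Reaction ran 45 min at room temperature, then binding reagent was added for 30 min in the dark. IC50 was taken from dose-response fits of percent inhibition.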
# [3] = 50% inhibitory concentration against CDK2/cyclin A2, given as class symbol
# [4] = 50% inhibitory concentration against CDK4/cyclin D3, given as class symbol
# [5] = Human CDK2/cyclin A2 inhibitory activity, read-out: CDK2 Activity symbol
# [6] = Human CDK4/cyclin D3 inhibitory activity, read-out: CDK4 Activity symbol
"IC50 [1, 3] [nM]","IC50 [2, 4] [nM]","IC50 [1, 5] [nM]","IC50 [2, 6] [nM]",SMILES
≥ 100,< 10,–,–,"CC(C)Nc1nc(C(C)O)cc2cnc(Nc3ccc(N4CCNC(C(F)(F)F)C4)nn3)nc12 (single isomer, unassigned) [Compound 989]"
≥ 100,< 10,–,–,"CC(C)Nc1nc(C(C)O)cc2cnc(Nc3ccc(N4CCNC(C(F)(F)F)C4)nn3)nc12 (single isomer, unassigned) [Compound 990]"
≥ 100,≥ 100,–,–,"CCCNc1nc(C2CCCO2)cc2cnc(Nc3ccc(N4CCNCC4)cn3)nc12 (single isomer, unassigned) [Compound 1025]"
≥ 100,10 to 100,–,–,"CCCNc1nc(C2CCCO2)cc2cnc(Nc3ccc(N4CCNCC4)cn3)nc12 (single isomer, unassigned) [Compound 1026]"
≥ 100,< 10,–,–,"CCNc1nc([C@@H](C)O)cc2cnc(Nc3ccc(CN4CCN(C(C)CO)CC4)cn3)nc12 (single isomer, unassigned) [Compound 1088]"
≥ 100,< 10,–,–,"CCNc1nc([C@@H](C)O)cc2cnc(Nc3ccc(CN4CCN(C(C)CO)CC4)cn3)nc12 (single isomer, unassigned) [Compound 1089]"
≥ 100,< 10,–,–,"CCCNc1nc([C@@H](C)O)cc2cnc(Nc3ccc(CN4CCN(C(C)CO)CC4)cn3)nc12 (single isomer, unassigned) [Compound 1206]"
≥ 100,< 10,–,–,"CCCNc1nc([C@@H](C)O)cc2cnc(Nc3ccc(CN4CCN(C(C)CO)CC4)cn3)nc12 (single isomer, unassigned) [Compound 1207]"
–,–,10 to 100,< 10,FC(F)c1cc2cnc(Nc3ccc(N4CCNCC4)cn3)nc2c(NC2CCCC2)n1 [Compound 1]
–,–,10 to 100,< 10,FC(F)c1cc2cnc(Nc3ccc(N4CCNCC4)cn3)nc2c(N[C@H]2CCCNC2)n1 [Compound 2]
–,–,10 to 100,< 10,FC(F)c1cc2cnc(Nc3ccc(N4CCNCC4)cn3)nc2c(NC2CCOCC2)n1 [Compound 4]
–,–,≥ 100,< 10,CN(c1nc(C(F)F)cc2cnc(Nc3ccc(N4CCNCC4)cn3)nc12)C1CCCC1 [Compound 5]
–,–,10 to 100,< 10,OCc1cc2cnc(Nc3ccc(N4CCNCC4)cn3)nc2c(NC2CCCC2)n1 [Compound 6]
–,–,≥ 100,< 10,CC(C)Oc1nc(C(F)F)cc2cnc(Nc3ccc(N4CCNCC4)cn3)nc12 [Compound 7]
–,–,≥ 100,< 10,CC(O)c1cc2cnc(Nc3ccc(N4CCNCC4)cn3)nc2c(NC2CCCC2)n1 (centres unmarked) [Compound 8]
–,–,≥ 100,< 10,CC(C)Nc1nc(C(C)O)cc2cnc(Nc3ccc(N4CCNCC4)cn3)nc12 (centres unmarked) [Compound 9]
–,–,≥ 100,< 10,CC(O)c1cc2cnc(Nc3ccc(N4CCNCC4)cn3)nc2c(N(C)C2CCCC2)n1 (centres unmarked) [Compound 10]
–,–,≥ 100,10 to 100,CC(O)c1cc2cnc(Nc3ccc(N4CCNCC4)cn3)nc2c(N(C)C2CCOCC2)n1 (centres unmarked) [Compound 11]
–,–,≥ 100,< 10,CC(O)c1cc2cnc(Nc3ccc(N4CCNCC4)cn3)nc2c(NC2CCOCC2)n1 (centres unmarked) [Compound 12]
–,–,10 to 100,< 10,CC(C)(C)Nc1nc(C(F)F)cc2cnc(Nc3ccc(N4CCNCC4)cn3)nc12 [Compound 13]
–,–,≥ 100,< 10,CC(C)N(C)c1nc(C(F)F)cc2cnc(Nc3ccc(N4CCNCC4)cn3)nc12 [Compound 14]
–,–,≥ 100,< 10,COCCNc1nc(C(F)F)cc2cnc(Nc3ccc(N4CCNCC4)cn3)nc12 [Compound 15]

"IC50 [1, 3] [nM]","IC50 [2, 4] [nM]","IC50 [1, 5] [nM]","IC50 [2, 6] [nM]",SMILES
–,–,≥ 100,< 10,CC(C)Nc1nc([C@H](C)O)cc2cnc(Nc3ccc(N4CCNCC4)cn3)nc12 [Compound 17]
–,–,≥ 100,< 10,FC(F)c1cc2cnc(Nc3ccc(N4CCNCC4)cn3)nc2c(NC2CC2)n1 [Compound 18]
–,–,≥ 100,< 10,CNc1nc(C(F)F)cc2cnc(Nc3ccc(N4CCNCC4)cn3)nc12 [Compound 19]
–,–,≥ 100,< 10,CCNc1nc(C(F)F)cc2cnc(Nc3ccc(N4CCNCC4)cn3)nc12 [Compound 20]
–,–,≥ 100,< 10,CC(O)c1cc2cnc(Nc3ccc(N4CCNCC4)cn3)nc2c(NC2CC2)n1 (centres unmarked) [Compound 21]
–,–,≥ 100,10 to 100,CNc1nc(C(C)O)cc2cnc(Nc3ccc(N4CCNCC4)cn3)nc12 (centres unmarked) [Compound 22]
–,–,≥ 100,< 10,CCNc1nc(C(C)O)cc2cnc(Nc3ccc(N4CCNCC4)cn3)nc12 (centres unmarked) [Compound 23]
–,–,≥ 100,< 10,CC(O)c1cc2cnc(Nc3ccc(N4CCNCC4)cn3)nc2c(NC(C)(C)C)n1 (centres unmarked) [Compound 24]
–,–,≥ 100,< 10,CC(O)c1cc2cnc(Nc3ccc(N4CCNCC4)cn3)nc2c(Nc2ccccc2)n1 (centres unmarked) [Compound 26]
–,–,≥ 100,10 to 100,CC(O)c1cc2cnc(Nc3ccc(N4CCNCC4)cn3)nc2c(Nc2ccn[nH]2)n1 (centres unmarked) [Compound 27]
–,–,≥ 100,< 10,COCC(C)Nc1nc(C(C)O)cc2cnc(Nc3ccc(N4CCNCC4)cn3)nc12 (centres unmarked) [Compound 28]
–,–,≥ 100,< 10,COCC(C)(C)Nc1nc(C(C)O)cc2cnc(Nc3ccc(N4CCNCC4)cn3)nc12 (centres unmarked) [Compound 29]
–,–,10 to 100,< 10,COCC(C)Nc1nc(C(F)F)cc2cnc(Nc3ccc(N4CCNCC4)cn3)nc12 (centres unmarked) [Compound 30]
–,–,≥ 100,< 10,COCC(C)(C)Nc1nc(C(F)F)cc2cnc(Nc3ccc(N4CCNCC4)cn3)nc12 [Compound 31]
–,–,≥ 100,< 10,CC(O)c1cc2cnc(Nc3ccc(N4CCNCC4)cn3)nc2c(Nc2cn[nH]c2)n1 (centres unmarked) [Compound 32]
–,–,≥ 100,≥ 100,FC(F)c1cc2cnc(Nc3ccc(N4CCNCC4)cn3)nc2c(NC2COC2)n1 [Compound 33]
–,–,≥ 100,10 to 100,CC(C)Nc1nc(C(=O)N(C)C)cc2cnc(Nc3ccc(N4CCNCC4)cn3)nc12 [Compound 34]
–,–,≥ 100,< 10,CC(=O)c1cc2cnc(Nc3ccc(N4CCNCC4)cn3)nc2c(NC(C)C)n1 [Compound 35]
–,–,≥ 100,≥ 100,CC(O)c1cc2cnc(Nc3ccc(N4CCNCC4)cn3)nc2c(NCC(F)F)n1 (centres unmarked) [Compound 36]
–,–,≥ 100,< 10,COC(C)c1cc2cnc(Nc3ccc(N4CCNCC4)cn3)nc2c(NC(C)C)n1 (centres unmarked) [Compound 37]
–,–,≥ 100,< 10,CO[C@@H](C)c1cc2cnc(Nc3ccc(N4CCNCC4)cn3)nc2c(NC(C)C)n1 [Compound 38]
